Experimental data published in US5278191A, “Diphenylmethylaminoacetamide derivatives as anti-convulsants” (G. D. Searle & Co., priority 1991, dated 1994).

What was measured:
5HTP-induced head twitch = assay: 5HTP-induced head twitch; type: in vivo, mice
Procedure: (§1) Treatment of a mammal afflicted by or susceptible to certain CNS disorders is accomplished by administration of a therapeutically-effective amount of a compound of Formula I. In particular, Compounds #1-19 of Tables I and II were evaluated by in vitro and in vivo animal model assays to determine the pharmacological properties of such compounds and their likely suitability for use as therapeutic drugs in humans. These biological assays, as described below, consisted of prevention of induced convulsions in mice, determination of acute toxicity in mice and animal behavior assays. Except as otherwise specified, the animals used in the in vivo tests were male Swiss albino mice weight 22 to 33 g [CD1, Charles River, France], housed in groups of 10 on a 12-hour dark-light cycle for at least one week before use and fasted overnight prior to testing.
Compound #18 was evaluated for inhibition of head twitches produced in mice by administration of L-5-hydroxytryptophan (5HTP, 10 mg/kg intraperitoneously) after nialamide treatment (50 mg/kg intraperitoneal, 22 hours before the test). The head twitches were counted for 45 min. starting 15 min. after 5HTP administration. [E. Friedmann & al.; Europ. J. Pharmocol., 89, 69-76 (1983)].

mice = system: mice; set-up: species or system male Swiss albino mice; conditions: mouse, in vivo, po
Procedure: as §1
(§2) The acute toxicity of compounds of the invention was determined after oral administration of the test compound to mice. Compound to be tested was suspended in a 1% tragacanth gum mucilage, and was administered by means of an intragastric probe to a group of three male mice, which doses varied from 3,000 mg/kg down to about 3 mg/kg. Doses used in the test were determined by observing toxic effects on the mice. The mortality was recorded over a period of 15 days. The LD50 results reported in Table V were calculated according to published methods [Lichtfield and Wilcoxon, J. Pharmacol. Exp. Ther., 96, 99 (1949)] and expressed in mg or test compound per kilogram of mouse body weight.
Behavioral effects of compounds of the invention on animals were determined by observations taken at 5 to 6 hours and at 24 hours after administration of compounds in the acute toxicity studies. Determinations were made based on a method derived from that of S. Irwin [See R. A. Turner, Screening Methods in Pharmacology, Chapter 3, pages 22-34, Academic Press, N.Y. (1965)]. If an anomaly were noted, the observation was extended and smaller doses were tested. Possible types of behavior to be observed are as follows: analgesia (AAG), convulsions (CON), depression (DEP), exophthalmia (EOP), excitation (EXC), hyperalgesia (HAG), hypothermia (ATH), hypotonia (ATN), piloerection (PIE), palpebral ptosis (PTO), reduction of the pinna reflex (RPI), reduction of the rearing reflex (RRE), reduction of the flexion reflex (RRF), sedation (SED), tremors (TRE), cyanosis (CYA), diarrhea (DIA), increase of the pinna reflex (HPI), increase of the flexion reflex (HRF), dyspnea (DYS). Behaviors observed are reported in Table IV by numbers which represent the dose at which the behavior is observed.

[1] = system: 3-mercaptopropionic acid (3-MPA)-induced convulsions; assay: 3-MPA-induced convulsions, protection of mice; type: in vivo, male Swiss albino mice; conditions: 3-MPA 120 mg/kg s.c.; for Number of Mice Protected From 3-MPA-Induced Convulsions: total protected of two groups of 5 mice
Procedure: as §1
Compounds of Formula I were evaluated as inhibitors of convulsions and death induced by different convulsant agents: 3-mercaptopropionic acid (3-MPA; 120 mg/kg subcutaneously), pentylenetetrazole (PTZ, 55 mg/kg intravenously) and supramaximal electroconvulsive shocks (ECS evoked by a current intensity of 48 mA, 50 Hz. 0.2 sec duration, 10 msec square pulse, corneal electrodes) [W. van Dorsser, D. Barris, A. Cordi and J. Roba, Arch. Int. Pharmacodyn., 266, 239-249 (1983)]. The compounds of the invention were administered orally at a dosage of either 100 mg/kg or 30 mg/kg in a volume of 10 ml/kg each to 5 mice at intervals of 30 minutes or 2 hours before convulsions were induced. The number of mice protected against tonic convulsions and the number of dead mice were noted. Results are given in Table III as a score which represents the total number of mice protected for two groups of 5 animals (3-MPA).
(§3) Based upon data generated from the previously-described anti-convulsant experiments, ED50 values were calculated at which Compound #18 inhibits convulsions induced by the convulsant agents listed in Table V.

[2] = Acute toxicity after oral administration; conditions: mouse, in vivo, mice, mortality over 15 days
Procedure: as §1, §2

[3] = system: supramaximal electroconvulsive shocks (ECS)-induced convulsions; assay: Supramaximal electroconvulsive shock (ECS) induced convulsions; type: in vivo, male Swiss albino mice; conditions: Mus musculus; oral; ECS 48 mA, 50 Hz, 0.2 sec; read-out: Inhibition of Convulsions (ED50), ECS
Procedure: as §1, with “Except as otherwise specified, the animals used in the in vivo tests were male Swiss albino mice weight 22 to 33 g [CD1, Charles River, France], housed in groups of 10 on a 12-hour dark-light cycle for at least one week before use and fasted overnight prior to testing.” left out
(§4) Compounds of Formula I were evaluated as inhibitors of convulsions and death induced by different convulsant agents: 3-mercaptopropionic acid (3-MPA; 120 mg/kg subcutaneously), pentylenetetrazole (PTZ, 55 mg/kg intravenously) and supramaximal electroconvulsive shocks (ECS evoked by a current intensity of 48 mA, 50 Hz. 0.2 sec duration, 10 msec square pulse, corneal electrodes) [W. van Dorsser, D. Barris, A. Cordi and J. Roba, Arch. […]
as §3

[4] = system: pentylenetetrazole (PTZ)-induced convulsions; assay: Pentylenetetrazole (PTZ) induced convulsions; type: in vivo, male Swiss albino mice; conditions: Mus musculus; oral; PTZ 55 mg/kg i.v.; read-out: Inhibition of Convulsions (ED50), PZT
Procedure: as §1, with “Except as otherwise specified, the animals used in the in vivo tests were male Swiss albino mice weight 22 to 33 g [CD1, Charles River, France], housed in groups of 10 on a 12-hour dark-light cycle for at least one week before use and fasted overnight prior to testing.” left out
as §4, §3

[5] = system: hypomotility induced by the α2 agonist clonidine; assay: Clonidine-induced hypomotility; type: in vivo; conditions: 10 mg/kg; clonidine 150 mg/kg i.p.; eight mice, 90 min after clonidine
Procedure: as §1
Given alone, clonidine inhibits spontaneous locomotor and rearing activity. Eight test mice were treated with Compound #18 and subsequently with clonidine ([…], intraperitoneal). Then, 90 min. after clonidine administration the mice were placed in a rectangular open field of 47×53 cm, having a floor divided into 36 boxes of about 8×9 cm. The number of boxes through which the animal goes in 3 min. and the number of rearing episodes were noted.

[6] = system: afterdischarge-like spike activity; assay: Chronic focal epilepsy assay (cobalt powder on frontal cortex, EEG); type: in vivo; conditions: intraperitoneal, rat
Description: In a model of chronic focal epilepsy where cobalt powder is placed on rat frontal cortex, the animals develop, after several days, chronic expression of afterdischarge-like spike activity which can be recorded by EEG.

SMILES | Behavior: dose at which sedation (SED) is observed (mice) | Number of Mice Protected From 3-MPA-Induced Convulsions ([1]; oral 100 mpk, interval 30 min) | LD50 at 360 h [2] | Number of Mice Protected From 3-MPA-Induced Convulsions ([1]; oral 30 mpk, interval 30 min) | further results
CCCCCNCC(N)=O [2-pentylaminoacetamide, reference compound] | – | – | – | – | effect on 5HTP-induced head twitch (comparison compound) (5HTP-induced head twitch; under similar test conditions): potentiates 5HTP-induced head twitch
NC(=O)CNC(c1ccccc1)c1ccc(Cl)cc1 (stereo not shown) [Compound 1, 2-[(4-chlorophenyl)phenyl]methylaminoacetamide] | 1000 mg/kg | 9 mice | 2400 mg/kg | – | Behavior: dose at which convulsions (CON) are observed (mice): 1000 mg/kg; Behavior: dose at which hypotonia (ATN) is observed (mice): 1000 mg/kg
COc1ccc(C(NCC(N)=O)c2ccccc2)cc1 (stereo not shown) [Compound 2, 2-[(4-methoxyphenyl)phenyl]methylaminoacetamide] | – | 8 mice | – | – | –
Cc1ccc(C(NCC(N)=O)c2ccccc2)cc1 (stereo not shown) [Compound 3, 2-[(4-methylphenyl)phenyl]methylaminoacetamide] | 1000 mg/kg | – | > 3000 mg/kg | 1 mice | Behavior: dose at which depression (DEP) is observed (mice): 3000 mg/kg
Cc1ccccc1C(NCC(N)=O)c1ccccc1 (stereo not shown) [Compound 4, 2-[(2-methylphenyl)phenyl]methylaminoacetamide] | 300 mg/kg | – | 780 mg/kg | 5 mice | Behavior: dose at which hypotonia (ATN) is observed (mice): 300 mg/kg
Cc1cccc(C(NCC(N)=O)c2ccccc2)c1 (stereo not shown) [Compound 5, 2-[(3-methylphenyl)phenyl]methylaminoacetamide] | 1000 mg/kg | – | 3500 mg/kg | 2 mice | –
Cc1ccc(C(NCC(N)=O)c2ccccc2)cc1C (stereo not shown) [Compound 6, 2-[(3,4-dimethylphenyl)phenyl]methylaminoacetamide] | 3000 mg/kg | – | 3500 mg/kg | 2 mice | Behavior: dose at which hypotonia (ATN) is observed (mice): 3000 mg/kg
NC(=O)CNC(c1ccccc1)c1ccc(C(F)(F)F)cc1 (stereo not shown) [Compound 7, 2-[(4-trifluoromethylphenyl)phenyl]methylaminoacetamide] | – | – | – | 4 mice | –
NC(=O)CNC(c1ccc(Cl)cc1)c1ccc(Cl)cc1 [Compound 8, 2-[di(4-chlorophenyl)]methylaminoacetamide] | – | – | – | 1 mice | –
Cc1ccc(C)c(C(NCC(N)=O)c2ccccc2)c1 (stereo not shown) [Compound 9, 2-[(2,5-dimethylphenyl)phenyl]methylaminoacetamide] | – | – | – | 1 mice | –
NC(=O)CNC(c1ccccc1)c1ccc(Br)cc1 (stereo not shown) [Compound 10, 2-[(4-bromophenyl)phenyl]methylaminoacetamide] | 1000 mg/kg | – | > 1000 mg/kg | 3 mice | –
NC(=O)CNC(c1ccc(F)cc1)c1ccccc1F (stereo not shown) [Compound 11, 2-[(4-fluorophenyl)(2-fluorophenyl)]methylaminoacetamide] | 100 mg/kg | – | 315 mg/kg | 8 mice | Behavior: dose at which convulsions (CON) are observed (mice): 1000 mg/kg; Behavior: dose at which depression (DEP) is observed (mice): 1000 mg/kg
NC(=O)CNC(c1ccccc1)c1ccc(F)cc1 (stereo not shown) [Compound 12, 2-[(4-fluorophenyl)phenyl]methylaminoacetamide] | – | 10 mice | – | 9 mice | –
NC(=O)CNC(c1ccc(F)cc1)c1ccc(F)cc1 [Compound 13, 2-[di(4-fluorophenyl)]methylaminoacetamide] | – | – | – | 5 mice | –
Cc1ccc(C(NCC(N)=O)c2ccccc2)c(C)c1 (stereo not shown) [Compound 14, 2-[(2,4-dimethylphenyl)phenyl]methylaminoacetamide] | – | 6 mice | – | 3 mice | –
NC(=O)CNC(c1ccccc1)c1cccc(Cl)c1 (stereo not shown) [Compound 15, 2-[(3-chlorophenyl)phenyl]methylaminoacetamide] | – | 9 mice | – | – | –
NC(=O)CNC(c1ccccc1)c1ccccc1Cl (stereo not shown) [Compound 16, 2-[(2-chlorophenyl)phenyl]methylaminoacetamide] | – | 9 mice | – | – | –
NC(=O)CNC(c1ccc(F)cc1)c1ccccc1Cl (stereo not shown) [Compound 17, 2-[(2-chlorophenyl)(4-fluoropheny)]methylaminoacetamide] | – | 10 mice | – | – | –
NC(=O)CNC(c1ccccc1)c1ccccc1 [Compound 18, 2-diphenylmethylaminoacetamide] | – | 10 mice | 1020 mg/kg | 9 mice | ED50 [3]: 26 mg/kg; ED50 [4]: 66 mg/kg; effect on clonidine-induced hypomotility [5]: seems unable to alter the hypomotility; Behavior: dose at which depression (DEP) is observed (mice): 1000 mg/kg; Behavior: dose at which palpebral ptosis (PTO) is observed (mice): 1000 mg/kg; ED50 ([1]; Mus musculus, oral, read-out: Inhibition of Convulsions (ED50), 3-MPA): 9.3 mg/kg; Number of Mice Protected From 3-MPA-Induced Convulsions ([1]; oral 100 mpk, interval 2 hr): 10 mice; time over which inhibition of spike activities was observed ([6]; threshold dose of 50 mg/kg): 14 to 90 min; minimal effective dose ([6]; ip, read-out: threshold dose for inhibiting spike activities): 50 mg/kg; ED50 (5HTP-induced head twitch; Mus musculus, po, 2 hours before 5HTP (10 mg/kg i.p.), nialamide pretreated mice, read-out: ED50 for inhibition of 5HTP-induced head twitches): 10 mg/kg; effect on 5HTP-induced head twitch (5HTP-induced head twitch; mice, nialamide treatment): inhibited 5HTP-induced head twitch
